The record followed here is patent publication US10050214B2, “Near-ultraviolet stimulated light-emitting compound and production method for same” (NANO CMS CO., LTD., priority 2014, dated 2018).

What all share (assay type): physicochemical
Series [1] in a line: Residual fluorescent intensity after artificial light exposure (ASTM G 154-06 Cycle 1). The method, then: The obtained quinazolinone compound was irradiated with near-UV light in the wavelength of 365 nm, and the intensity of discharged fluorescence was measured. The fluorescent intensity was measured using a fluorescence spectrometer (DARSA-5000, PSI Co., Ltd.), under the condition of 365 nm stimulation wavelength, cumulative average of five-time measurements, and 1024×128 CCD sensor shape. In addition, measurement of residual fluorescent intensity after artificial light exposure was repeated identically according to ASTM G 154-06 Cycle 1 standard.

Series [2] in a line: Solubility in organic solvents (eight product items). The following applies: for Solubility, 2% Sodium Hydroxide (Caustic Soda) Solution: 2% Sodium Hydroxide solution; for solubility in organic solvents (in words): summary of TABLE 3. The method, then:
(§1) Further, the melting point was measured using the melting point measuring instrument (M5000, KRÜSS GmbH), by assuming that the phase change is at the point where the change in transmissivity reaches 20%. Solubility in organic solvents was measured with respect to eight product items.

A short description of series [3]: Chemical resistance and solvent resistance tests on printed material. The settings on record: summary of TABLE 4; printed material with 10% compound. The method, then: (§2) In addition, compositions respectively containing 10% compounds of embodiments 6 and 11 were sealed on a non-florescent paper, using a grinder and an offset plate printing press (HFT-225, HONGFAT machinery manufacturing Co., Ltd.). Chemical resistance tests and solvent resistance tests were performed on the printed material for 30 minutes at 23° C. with respect to each of nine product items. Furthermore, grades with reference to the standard and remaining fluorescence intensities were measured by irradiating the near-ultraviolet light of 365 nm wavelength, using a weatherability tester (QUV, Q-LAB Corporation), according to ASTM G154-06 Cycle No. 1 standard (except for the condensation conditions).

Series [4] in a line: Weatherability test (QUV tester, ASTM G154-06 Cycle No. 1). The following applies: in words. The method, then: as §2
Series [5] in a line: Thermal stability (melting point measuring instrument). The following applies: summary of TABLE 3. The method, then:
as §1

The structures appear in SMILES notation.

Consider `O=c1[nH]c(-c2ccc(Cl)cc2O)nc2cc(Cl)ccc12` [Embodiment 12, 7-chloro-2-(4-chloro-2-hydroxyphenyl)quinazoline-4(3H)-on], for which the “The remaining fluorescence intensity (after artificial light exposure) Coating (10%)” value (from here on “The remaining fluorescence intensity … (10%)”) in series [1] was determined as 40%.
Turning to `O=c1[nH]c(-c2cc(Cl)ccc2O)nc2ccccc12` [Embodiment 4, 2-(5-chloro-2-hydroxyphenyl)quinazoline-4(3H)-on], the “The remaining fluorescence intensity … (10%)” value in series [1] is recorded as 65%.
Take `O=c1[nH]c(-c2ccc(Cl)cc2O)nc2ccc(Cl)cc12` [Embodiment 11, 6-chloro-2-(4-chloro-2-hydroxyphenyl)quinazoline-4(3H)-on]: the “The remaining fluorescence intensity … (10%)” value in series [1] is on record as 70%. For the same compound, in series [2], the “Solubility, 2% Sodium Hydroxide (Caustic Soda) Solution” value was “Resolved” and the “solubility in organic solvents (in words)” value is listed as “low”. The “solvent resistance (in words)” value in series [3] was “high solvent resistance”. Besides, the “light fastness grade and remaining fluorescence intensity compared with conventional commercial products” value in series [4] is “higher light fastness grade and remaining fluorescence intensity than those of conventional commercial products”. For the same compound, the “thermal stability (in words)” value in series [5] is listed as “high”.
Turning to `COc1ccc(-c2nc3ccc(Cl)cc3c(=O)[nH]2)c(O)c1` [Embodiment 8, 6-chloro-2-(2-hydroxy-4-methoxyphenyl)quinazoline-4(3H)-on], the “The remaining fluorescence intensity … (10%)” value in series [1] amounted to 45%.
On to `O=c1[nH]c(-c2cc(F)ccc2O)nc2ccccc12` [Embodiment 13, 2-(5-fluoro-2-hyroxyphenyl)quinazoline-4(3H)-on], for which the “The remaining fluorescence intensity … (10%)” value in series [1] was 65%.
On to `O=c1[nH]c(-c2c(O)cccc2Cl)nc2ccccc12` [Embodiment 16, 2-(2-chloro-6-hyrdoxyphenyl)quinazoline-4(3H)-on], for which the “The remaining fluorescence intensity … (10%)” value in series [1] came to 60%.
Turning to `O=c1[nH]c(-c2cc(Cl)ccc2O)nc2cc(Cl)ccc12` [Embodiment 6, 7-chloro-2-(5-chloro-2-hydroxyphenyl)quinazoline-4(3H)-on], the “The remaining fluorescence intensity … (10%)” value in series [1] turned out to be 70%. Also, in series [2], the “Solubility, 2% Sodium Hydroxide (Caustic Soda) Solution” value is listed as “Resolved” and the “solubility in organic solvents (in words)” value is given as “low”. Further, the “solvent resistance (in words)” value in series [3] is reported as “high solvent resistance”. In addition, the “light fastness grade and remaining fluorescence intensity compared with conventional commercial products” value in series [4] is “higher light fastness grade and remaining fluorescence intensity than those of conventional commercial products”. Moreover, in series [5], the “thermal stability (in words)” value is reported as “high”.
Regarding `O=c1[nH]c(-c2cccc(Cl)c2O)nc2ccccc12` [Embodiment 17, 2-(3-choloro-2-hydroxyphenyl)quinazoline-4(3H)-on], the “The remaining fluorescence intensity … (10%)” value in series [1] is recorded as 60%.
As to `O=c1[nH]c(-c2cc(Cl)ccc2O)nc2ccc(Cl)cc12` [Embodiment 5, 6-choloro-2-(5-chloro-2-hydroxyphenyl)quinazoline-4(3H)-on], the “The remaining fluorescence intensity … (10%)” value in series [1] is given as 80%.
As to `O=c1[nH]c(-c2ccc(Cl)cc2O)nc2ccccc12` [Embodiment 10, 2-(4-chloro-2-hydroxyphenyl)quinazoline-4(3H)-on], the “The remaining fluorescence intensity … (10%)” value in series [1] stood at 60%.
Take `COc1ccc(-c2nc3ccccc3c(=O)[nH]2)c(O)c1` [Embodiment 7, 2-(2-hydroxy-4-methoxyphenyl)quinazoline-4-(3H)-on]: in series [1], the “The remaining fluorescence intensity … (10%)” value is reported as 40%.
